Reference: patent US11833185B2, “Anti-neurodegenerative therapeutic, method of manufacture, and use” (UNIVERSITY OF KENTUCKY RESEARCH FOUNDATION, priority 2017, dated 2023)
Where a SMILES comes first, the peptide text is derived from it.

Legend:
[1] = Plasma levels by LC-MS/MS after subcutaneous administration; assay type: in vivo, rat; conditions: 100 mg/kg s.c. in saline
MN9D neuronal cells [2] = experiment: Protection of mitochondrial potentials against rotenone, MPP+ and TaClo-induced cytotoxicity; assay type: cell-based; conditions: 100 nM pretreatment, 1, 3, 12, 24 hours
Procedure: (§1) Testing involved permutations of size and diversifying amino acid sequence at each residue position. Sequence design began with Proline-Proline-Glutamate-Alanine-Proline-Alanine-Glutamate-Aspartate-Arginine-Serine-Leucine-NH2. […] These properties were tested using the dopaminergic MN9D neuronal cell line. Each candidate peptide sequence was dissolved in citrate buffer and added to MN9D cells (Choi et al., 1992) that were cultured in Dulbecco's Modified Eagle's Medium [DMEM (containing pyridoxol HCl); Sigma, St. Louis, MO] supplemented with 10% Fetal Bovine serum (HyClone, Logan, UT), 50 U/ml penicillin and streptomycin to a final 100 nM concentration. Using LIVE/DEAD and JC-1 assays in MN9D neuronal cells, individual library sequences were measured for toxicity and loss of mitochondrial potentials at 1 and 3 hours post treatment. […] The remaining sequences were then tested for their ability to provide protection against neurotoxins rotenone, 1-methyl-4-phenylpyridinium (MPP+), and trichloromethyl-1,2,3,4-tetrahydro-β-carboline (TaClo).

[3] = rat, in vivo, sc, 100 mg/kg
MN9D neuronal cells [4] = experiment: LIVE/DEAD and JC-1 assays for toxicity and loss of mitochondrial potentials; conditions: 100 nM, 1 and 3 hours post treatment
Procedure: as §1

[5] = rat, in vivo, sc
depression = conditions: person, intranasal spray 50 mg daily for 270 days
Procedure: A person presents with the diagnosis of depression. They are administered peptide by intranasal spray at a dosage of 50 mg daily for 270 days. At 1, 90, 180, 270 and 360 days they are tested/retested with a battery of mental status tests including Hamilton Depression Scale (HAMD), Mini Mental Status Exam (MMSE), Beck Depression Index (BDI), Montgomery-Asberg Depression Rating Scale (MADRS), Clinical Global Impression Scale (CGI), Patient Global Impression Scale (PGI), Structural Clinical Interview for Diagnostic and Statistic Manual of Mental Disorders IV (SCID).

Row | Compound | total lifetime in plasma [1] [min] | Cmax ([1]; rat, plasma, sc, read-out: maximum plasma level) [ng/mL] | Tmax ([1]; rat, plasma, sc, read-out: time of maximum plasma level post administration (converted)) [min] | protection against neurotoxins (rotenone, MPP+, TaClo) (MN9D neuronal cells [2]) | half-life [3] [min] | toxicity (MN9D neuronal cells [4]) | improved CNS bioavailability compared to AV6403 [5] | HAMD from day 1 over 360 days (depression)
1 | C[C@H](NC(=O)[C@@H]1CCCN1C(=O)[C@H](C)NC(=O)[C@@H](N)CCC(=O)O)C(=O)N[C@@H](CCC(=O)O)C(N)=O [AV2157, Glutamate-Alanine-Proline-Alanine-Glutamate-NH2] (H-EAPAE-NH2; N-terminus assumed) | ~120 | 1250 | 20 | protection against neurotoxin exposure at all time points measured | 50 to 60 | low toxicity | over 10 times | 
2 | Ac-Leucine-D-Methionine-Proline-Alanine-deuterated Serine-Phenylalanine [SEQ ID NO: 9] |  |  |  |  |  |  |  | improvement in HAMD
